Tests used:
[1] = tested on: D. salina cultures; test: D. salina cultures treated with herbicides; carotenoid contents determined by HPLC; format: cell-based, Dunaliella salina; settings: for yield of phytoene, red light versus white light: herbicide-treated cultures, Table 4; for 9-cis/all-trans β-carotene ratio: norflurazon-treated; for content of phytoene per cell: continuous white LED light ~200 μmol m^−2 s^−1, 25° C.
[2] = Effect of red and blue LED light on all-trans β-carotene dissolved in chloroform; format: physicochemical; settings: 2.4 μM in chloroform, 24 h, 25° C.
Experimental: FIGS. 10A-10C: Effect of red and blue LED light on all-trans β-carotene. (FIG. 10A) Red light under nitrogen; (FIG. 10B) Red light in air; (FIG. 10C) Blue light in air. All-trans-β-carotene (Sigma) was dissolved in chloroform to a final concentration of 2.4 μM and vials were thoroughly flushed with either nitrogen or air, sealed and incubated for 24 h at 25° C. under LED lights. (FIG. 10A) red, nitrogen; (FIG. 10B), red, air; (FIG. 10C) blue, nitrogen or air. The same results as (FIG. 10A) were obtained for dark under nitrogen or air. […] In (FIG. 10A) (red light under nitrogen) no reaction of β-carotene was detected.

[3] = Table 5, red light, 200 μmol m^−2 s^−1, 48 h
[4] = red light 200 pmol m^−2 s^−1 continuous, 48 h, chlorpropham 10 μM, Norflurazon 5 µM
[5] = red light 200 μmol m^−2 s^−1 continuous, 48 h, chlorpropham 10 μM, Norflurazon 5 µM
[6] = white LED light 200 pmol m^−2 s^−1 continuous, 48 h, chlorpropham 10 μM, Norflurazon 5 µM
[7] = white LED light 200 μmol m^−2 s^−1 continuous, 48 h, chlorpropham 10 μM, Norflurazon 5 µM
[8] = 20 μM chlorpropham, 6-days cultivation in white LED light
[9] = 20 μM chlorpropham, white light 1500 μmol m^−2 s^−1, 4 days' cultivation
[10] = Table 5 (red light), 1500 μmol m^−2 s^−1, 96 h
[11] = Table 5, red light, 200 μmol m^−2 s^−1, 144 h

## O=C(Nc1ccc(F)cc1F)c1cccnc1Oc1cccc(C(F)(F)F)c1 [Diflufenican, N-(2,4-difluorophenyl)-2-[3-(trifluoromethyl)phenoxy]pyridine-3-carboxamide]
[1]; [3]
  9-cis β-carotene: 10.84 ± 0.19 pg cell^−1
  9cis of total: 38%
  All-trans α-carotene: 0.34 ± 0.00 pg cell^−1
  All-trans β-carotene: 2.98 ± 0.11 pg cell^−1
  Phytoene: 12.78 ± 0.40 pg cell^−1
  Phytofluene: 0.01 ± 0.00 pg cell^−1
  Total carotenoids (sum): 28.64 pg cell^−1
  lutein: 0.56 ± 0.01 pg cell^−1
  phytoene + phytofluene of total: 45%
  zeaxanthin: 1.13 ± 0.06 pg cell^−1

## CNc1cnn(-c2cccc(C(F)(F)F)c2)c(=O)c1Cl [Norflurazon, 4-chloro-5-methylamino-2-(3-trifluoromethylphenyl)-pyridazin-3(2H)one]
[1]; 48 h
  yield of phytoene, red light versus white light: more than doubled
[1]; norflurazon 5 and 50 μM, 200 μmol m^−2 s^−1, 25° C., 48 h
  amount of phytoene produced under red light compared to white light: significantly higher
[1]; red LED light 200 μmol m^−2 s^−1, 25° C., 48 h
  9-cis/all-trans β-carotene ratio: 3.9
[1]; white LED light 200 μmol m^−2 s^−1, 25° C., 48 h
  9-cis/all-trans β-carotene ratio: 1.8
[1]; [4]
  9-cis β-carotene: 11.89 ± 0.83 pg cell^−1
  zeaxanthin: 1.12 ± 0.06 pg cell^−1
[1]; [5]
  9cis of total: 38%
  Phytoene: 14.42 ± 0.95 pg cell^−1
  Phytofluene: 0.02 ± 0.00 pg cell^−1
  Total carotenoids (sum): 31.55 pg cell^−1
  lutein: 0.62 ± 0.02 pg cell^−1
  phytoene + phytofluene of total: 46%
[1]; [6]
  9-cis β-carotene: 7.65 ± 0.67 pg cell^−1
  zeaxanthin: 0.80 ± 0.07 pg cell^−1
[1]; [7]
  9cis of total: 37%
  Phytoene: 7.07 ± 0.36 pg cell^−1
  Phytofluene: 0.01 ± 0.00 pg cell^−1
  Total carotenoids (sum): 20.6 pg cell^−1
  lutein: 0.52 ± 0.02 pg cell^−1
  phytoene + phytofluene of total: 34%

## CC1=C(/C=C/C(C)=C/C=C/C(C)=C/C=C/C=C(C)/C=C/C=C(C)/C=C/C2=C(C)CCCC2(C)C)C(C)(C)CCC1 [all-trans β-carotene, all-trans-β-carotene]
[2]; blue light, nitrogen or air
  destruction of all-trans β-carotene: fully destroyed
[2]; red light under air
  destruction of all-trans β-carotene: 40%
[2]; red light under nitrogen
  reaction of β-carotene: no reaction

## Nc1cc(Cl)nc(C(=O)O)c1Cl [aminopyralid, 4-amino-3,6-dichloropyridine-2-carboxylic acid]
[1]
  content of phytoene per cell: increased

## CCNC(=O)[C@@H](C)OC(=O)Nc1ccccc1 [carbetamide, (R)-1-(ethylcarbamoyl)ethyl carbanilate]
[1]
  content of phytoene per cell: increased

## CC(C)OC(=O)Nc1cccc(Cl)c1 [chlorpropham, isopropyl N-(3-chlorophenyl) carbamate]
[1]; [8]
  final phytoene concentration in the cultures: 3.55 ± 0.11 mg/L
  phytoene content in cells: 25.76±1.58 pg cell^−1
[1]; 20 μM chlorpropham, 6-days cultivation in white LED light, compared to untreated cells
  increase of phytoene content in cells: ca. 50 fold
[1]; 20 μM chlorpropham, 6-days cultivation in white LED light, compared to untreated cultures
  increase of final phytoene concentration in the cultures: 10 fold
[1]; [9]
  phytoene content: above 30 pg cell^−1
  phytoene yield: 8.2 mg/L
[1]; [10]
  9-cis β-carotene: 6.96 ± 0.74 pg cell^−1
  9cis of total: 12%
  All-trans α-carotene: 0.44 ± 0.07 pg cell^−1
  All-trans β-carotene: 17.34 ± 0.97 pg cell^−1
  Phytoene: 30.62 ± 1.31 pg cell^−1
  Phytofluene: 1.87 ± 0.12 pg cell^−1
  Total carotenoids (sum): 58.61 pg cell^−1
  lutein: 0.61 ± 0.03 pg cell^−1
  phytoene + phytofluene of total: 55%
  zeaxanthin: 0.77 ± 0.02 pg cell^−1
[1]; [11]
  9-cis β-carotene: 31.3 ± 2.49 pg cell^−1
  9cis of total: 29%
  All-trans α-carotene: 1.4 ± 0.13 pg cell^−1
  All-trans β-carotene: 18.34 ± 1.45 pg cell^−1
  Phytoene: 51.88 ± 4.53 pg cell^−1
  Phytofluene: 3.02 ± 0.29 pg cell^−1
  Total carotenoids (sum): 108.48 pg cell^−1
  lutein: 1.21 ± 0.09 pg cell^−1
  phytoene + phytofluene of total: 51%
  zeaxanthin: 1.33 ± 0.10 pg cell^−1
[1]; compared to untreated cultures
  increase of cellular content of colorless carotenoids: more than 30 fold
  increase of yield of the colorless carotenoids: more than 10 fold
[1]; 48 h
  yield of phytoene, red light versus white light: more than doubled
[1]; once chlorpropham was added
  Cell density: stopped increasing
[1]; [4]
  9-cis β-carotene: 14.35 ± 1.24 pg cell^−1
  zeaxanthin: 1.05 ± 0.06 pg cell^−1
[1]; [5]
  9cis of total: 39%
  Phytoene: 10.56 ± 1.53 pg cell^−1
  Phytofluene: 1.58 ± 0.17 pg cell^−1
  Total carotenoids (sum): 36.7 pg cell^−1
  lutein: 0.74 ± 0.05 pg cell^−1
  phytoene + phytofluene of total: 33%
[1]; same concentration of chlorpropham treatment
  phytoene contents under red light versus white light: higher
[1]; tested 0, 0.1, 1, 10, 20, 50 and 100 μM, 25° C.
  optimal concentration range of chlorpropham added to the cultures (phytoene production): 10 to 50 µM
[1]; [6]
  9-cis β-carotene: 13.35 ± 1.88 pg cell^−1
  zeaxanthin: 0.84 ± 0.09 pg cell^−1
[1]; [7]
  9cis of total: 43%
  Phytoene: 4.41 ± 0.65 pg cell^−1
  Phytofluene: 0.67 ± 0.09 pg cell^−1
  Total carotenoids (sum): 30.99 pg cell^−1
  lutein: 0.83 ± 0.13 pg cell^−1
  phytoene + phytofluene of total: 16%

## COc1nc(C)nc(NC(=O)NS(=O)(=O)c2ccccc2Cl)n1 [chlorsulfuron, 1-(2-chlorophenyl)sulfonyl-3-(4-methoxy-6-methyl-1,3,5-triazin-2-yl)urea]
[1]
  content of phytoene per cell: increased

## O=C(O)CNCP(=O)(O)O [glyphosate, 2-(phosphonomethylamino)acetic acid]
[1]
  content of phytoene per cell: increased
